We go through 33 compounds from patent publication US12295396B2, “Antagonists of T2R54 and compositions and uses thereof” (Firmenich Incorporated, priority 2018, dated 2025).

Molecules are shown by their SMILES.

The target in one assay is T1, hT2R54 (Homo sapiens, UniProt P59534).
T1 construct: expressed in transfected cells; it overexpresses a promiscuous G protein
T1 sequence (P59534 1-338): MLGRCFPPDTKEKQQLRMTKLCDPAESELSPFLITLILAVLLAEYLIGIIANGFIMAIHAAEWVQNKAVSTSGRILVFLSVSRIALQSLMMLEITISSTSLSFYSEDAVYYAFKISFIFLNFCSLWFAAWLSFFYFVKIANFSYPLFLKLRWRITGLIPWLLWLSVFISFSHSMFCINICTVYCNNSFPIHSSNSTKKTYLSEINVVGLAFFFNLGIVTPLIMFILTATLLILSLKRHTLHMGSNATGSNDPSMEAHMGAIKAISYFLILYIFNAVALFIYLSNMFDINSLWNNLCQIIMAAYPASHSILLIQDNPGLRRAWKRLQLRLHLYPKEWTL
The experiment in a line: Cell-based assay for measuring hT2R54 inhibition (FLIPR calcium, Fluo4AM, acetaminophen as bitter agonist). Particulars: Table 2; cells stably expressing hT2R54 and a promiscuous G protein; read-out: hT2R54 IC50. The method, boiled down: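 Cells stably co-expressing hT2R54 and a promiscuous G protein were loaded with Fluo4AM and given acetaminophen dose series, alone or with fixed concentrations of test compound. On FLIPR, baseline was recorded for 10 s and fluorescence for 3 min after addition. IC50 is the concentration halving the acetaminophen-alone response.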
As for `CC(=O)c1cc2c(cc1NC(=O)CN1CCN(C(=O)CC(C)C)CC1)OCO2` [Cmpd 1, N-(6-Acetylbenzo[d][1,3]dioxol-5-yl)-2-(4-(3-methylbutanoyl)piperazin-1-yl)acetamide], the IC50 amounted to 16 nM.

Turning to `CC(=O)c1cc2c(cc1NC(=O)CN1CCN(C(=O)C3CCCO3)CC1)OCO2` (centres unmarked) [compound 22], the IC50 is 21 nM.

Staying with this assay, now noted: Table 8; read-out: hT2R54 IC50.
For `COc1cc2c(cc1NC(=O)CC1CCN(C(C)=O)CC1)OCO2` [compound 496], the IC50 was > 10000 nM.

With `COc1cc2c(cc1NC(=O)CC1CCN(C(=O)C3CCCO3)CC1)OCO2` (centres unmarked) [compound 497], the IC50 is > 10000 nM.

As for `COc1cc2c(cc1NC(=O)CC1CCN(C(=O)Cc3ccco3)CC1)OCO2` [compound 498], the IC50 was > 10000 nM.

With `COc1cc2c(cc1NC(=O)CC1CCN(C(=O)c3nc(C)c[nH]3)CC1)OCO2` [compound 499], the IC50 is > 10000 nM.

As for `COc1cc2c(cc1NC(=O)CC1CCN(C(=O)c3ccc(C)o3)CC1)OCO2` [compound 500], the IC50 amounted to 4000 nM.

On to `COc1cc2c(cc1NC(=O)CC1CCN(C(=O)c3ccncc3)CC1)OCO2` [compound 501], for which the IC50 was > 50000 nM.

Turning to `CC(=O)c1cc2c(cc1NC(=O)CC1CCCN(C(=O)c3ccncc3)C1)OCO2` (centres unmarked) [compound 502], the IC50 amounted to 170 nM.

For `COCc1ccc(C(=O)N2CCCC(CC(=O)Nc3cc4c(cc3C(C)=O)OCO4)C2)cc1` (centres unmarked) [compound 503], the IC50 is 99 nM.

As to `CC(=O)c1cc2c(cc1NC(=O)CC1CCCN(C(=O)c3nc(C)c[nH]3)C1)OCO2` (centres unmarked) [compound 504], the IC50 was 159 nM.

Take `CC(=O)c1cc2c(cc1NC(=O)CC1CCCN(C(=O)c3ncc[nH]3)C1)OCO2` (centres unmarked) [compound 505]: the IC50 came out at 130 nM.

As for `CC(=O)c1cc2c(cc1NC(=O)CC1CCCN(C(=O)c3cccnc3)C1)OCO2` (centres unmarked) [compound 506], the IC50 was determined as 113 nM.

As for `CC(=O)c1cc2c(cc1NC(=O)CC1CCCN(C(=O)c3ccccn3)C1)OCO2` (centres unmarked) [compound 507], the IC50 was 275 nM.

With `COC(=O)c1cc2c(cc1NC(=O)CC1CCCN(C(C)=O)C1)OCCO2` (centres unmarked) [compound 508], the IC50 came out at 1200 nM.

With `CC(=O)c1cc2c(cc1NC(=O)CC1CN(C(C)=O)CCO1)OCO2` (centres unmarked) [compound 509], the IC50 stood at 180 nM.

As for `CC(=O)c1cc2c(cc1NC(=O)CC1CN(C(=O)C3CCCO3)CCO1)OCO2` (centres unmarked) [compound 510], the IC50 was found to be 150 nM.

As for `COc1cc2c(cc1NC(=O)CC1CCCN(C(=O)CC(C)C)C1)OCO2` (centres unmarked) [compound 511], the IC50 was > 10000 nM.

Consider `COc1cc2c(cc1NC(=O)CC1CCCN(C(=O)c3ccco3)C1)OCO2` (centres unmarked) [compound 512], for which the IC50 worked out at 7700 nM.

With `COc1cc2c(cc1NC(=O)CC1CCCN(C(=O)c3ccccc3)C1)OCO2` (centres unmarked) [compound 513], the IC50 stood at 2700 nM.

For `CCS(=O)(=O)N1CCCC(CC(=O)Nc2cc3c(cc2OC)OCO3)C1` (centres unmarked) [compound 515], the IC50 is 500 nM.

The same assay, now with this note: Table 9; read-out: hT2R54 IC50.
For the compound `CC(=O)c1cc2c(cc1NC(=O)CC(C)C)OCO2` [compound 516], the IC50 stood at 3000 nM.

As for `CC(=O)c1cc2c(cc1NC(=O)CC1CCCC1)OCO2` [compound 517], the IC50 turned out to be 414 nM.

In the case of `CC(=O)c1cc2c(cc1NC(=O)Cc1c(C)noc1C)OCO2` [compound 518], the IC50 came out at 3800 nM.

With `CC(=O)c1cc2c(cc1NC(=O)CC1CCCN(C(=O)OC(C)(C)C)C1)OCO2` (centres unmarked) [compound 519], the IC50 was found to be 900 nM.

Turning to `COc1cc2c(cc1NC(=O)CC1CCCC1)OCO2` [compound 520], the IC50 stood at 308 nM.

On to `COc1cc2c(cc1NC(=O)CC1CCCCO1)OCO2` (centres unmarked) [compound 521], for which the IC50 came to 2260 nM.

Take `COc1ccccc1CC(=O)Nc1cc2c(cc1OC)OCO2` [compound 522]: the IC50 amounted to 886 nM.

In the case of `CC(=O)c1cc2c(cc1NC(=O)Cc1ccco1)OCO2` [compound 523], the IC50 was 2310 nM.

With `COc1cc2c(cc1NC(=O)Cc1ccsc1)OCO2` [compound 524], the IC50 worked out at 868 nM.

Take `COc1cc2c(cc1NC(=O)C(C)C1CCN(C(=O)OC(C)(C)C)CC1)OCO2` (centres unmarked) [compound 525]: the IC50 worked out at 3000 nM.

As to `COC(=O)c1cc2c(cc1NC(=O)CC1CCN(C(=O)OC(C)(C)C)CC1)OCO2` [compound 528], the IC50 was ~1000 nM.

On to `COC(=O)c1cc2c(cc1NC(=O)CC1CCOCC1)OCCO2` [compound 529], for which the IC50 amounted to 12000 nM.

In a further assay the target is T2, T2R61 (Homo sapiens, UniProt P59537).
T2 sequence (P59537 1-309): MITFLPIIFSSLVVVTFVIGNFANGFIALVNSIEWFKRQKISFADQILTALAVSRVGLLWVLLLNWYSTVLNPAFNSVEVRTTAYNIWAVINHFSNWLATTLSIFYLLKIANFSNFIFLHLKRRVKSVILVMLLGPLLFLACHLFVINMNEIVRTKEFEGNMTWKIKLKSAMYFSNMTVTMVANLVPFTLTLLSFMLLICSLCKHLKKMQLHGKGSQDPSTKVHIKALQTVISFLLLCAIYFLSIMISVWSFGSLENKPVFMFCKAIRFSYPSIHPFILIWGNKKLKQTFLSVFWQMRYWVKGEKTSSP
The experiment in a line: Antagonist activity against a panel of bitter taste receptors (receptor based assay): T2R61. In kind it is cell-based.
Details: not given
From the text:
(§1) Compounds described in this application show potent bitter antagonist effect on T2R54 in receptor based assays. […] Antagonist activity of 1-(6-methyl-2-phenylpyrimidin-4-yl)piperidine-4-carboxamide against a panel of bitter taste receptors is shown in Table 10, with the identity of each T2R as indicated in the left column, and the percentage activity remaining is indicated in the far right column.
As to `CC(=O)c1cc2c(cc1NC(=O)CN1CCN(C(=O)CC(C)C)CC1)OCO2` [Cmpd 1, N-(6-Acetylbenzo[d][1,3]dioxol-5-yl)-2-(4-(3-methylbutanoyl)piperazin-1-yl)acetamide], the “bitter blocking effect on T2R61” value is on record as “significant bitter blocking effect”.

Another assay concerns the target T3, T2R64 (Homo sapiens, UniProt P59538).
T3 sequence (P59538 1-309): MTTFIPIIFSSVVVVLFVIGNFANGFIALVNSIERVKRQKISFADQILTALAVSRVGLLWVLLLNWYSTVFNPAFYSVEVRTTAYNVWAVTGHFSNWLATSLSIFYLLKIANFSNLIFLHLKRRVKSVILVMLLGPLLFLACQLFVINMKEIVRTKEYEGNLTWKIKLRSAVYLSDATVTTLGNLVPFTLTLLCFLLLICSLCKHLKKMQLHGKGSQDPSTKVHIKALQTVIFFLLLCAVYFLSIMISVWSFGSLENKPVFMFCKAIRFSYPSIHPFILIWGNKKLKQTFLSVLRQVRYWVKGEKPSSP
The experiment in a line: Antagonist activity against a panel of bitter taste receptors (receptor based assay): T2R64. In kind it is cell-based.
Details: not given
Source text: as §1
Turning to `CC(=O)c1cc2c(cc1NC(=O)CN1CCN(C(=O)CC(C)C)CC1)OCO2` [Cmpd 1, N-(6-Acetylbenzo[d][1,3]dioxol-5-yl)-2-(4-(3-methylbutanoyl)piperazin-1-yl)acetamide], the “bitter blocking effect on T2R64” value was “significant bitter blocking effect”.

Another assay concerns the target T4, T2R75 (Homo sapiens, UniProt P59540).
T4 sequence (P59540 1-309): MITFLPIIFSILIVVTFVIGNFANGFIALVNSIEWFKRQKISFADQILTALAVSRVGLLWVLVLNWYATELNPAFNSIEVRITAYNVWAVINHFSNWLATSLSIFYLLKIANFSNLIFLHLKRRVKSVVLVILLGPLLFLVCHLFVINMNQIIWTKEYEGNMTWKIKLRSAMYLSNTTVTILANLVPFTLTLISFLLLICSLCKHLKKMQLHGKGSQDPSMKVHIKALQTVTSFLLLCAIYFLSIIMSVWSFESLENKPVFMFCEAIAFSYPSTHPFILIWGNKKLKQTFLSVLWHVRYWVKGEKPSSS
The experiment in a line: Antagonist activity against a panel of bitter taste receptors (receptor based assay): T2R75. In kind it is cell-based.
Details: not given
Source text: as §1
For the compound `CC(=O)c1cc2c(cc1NC(=O)CN1CCN(C(=O)CC(C)C)CC1)OCO2` [Cmpd 1, N-(6-Acetylbenzo[d][1,3]dioxol-5-yl)-2-(4-(3-methylbutanoyl)piperazin-1-yl)acetamide], the “bitter blocking effect on T2R75” value is “significant bitter blocking effect”.

The test system of a further assay is bitterness of epigallocatechin gallate (EGCg). The experiment in a line: Sensory experiments: taste tests comparing EGCg alone with EGCg and a bitter blocker. In kind it is in vivo, human. Particulars: 600 uM EGCG + 15 uM compound versus 600 uM EGCG alone; 56 in total; p-value 0.044. Here is the method:
To determine the effectiveness of an individual antagonist in blocking the bitterness, taste tests were performed comparing epigallocatechin gallate (EGCg) alone, which is known to activate T2R54 with EGCg and a bitter blocker described herein, namely compound 22 (Table 2).
For `CC(=O)c1cc2c(cc1NC(=O)CN1CCN(C(=O)C3CCCO3)CC1)OCO2` (centres unmarked) [compound 22], the “Total (times sample selected as more bitter)” value was 20.

Still in this assay, the particulars now being: taste tests, EGCg alone versus EGCg with bitter blocker.
As for `CC(=O)c1cc2c(cc1NC(=O)CN1CCN(C(=O)C3CCCO3)CC1)OCO2` (centres unmarked) [compound 22], the “reduction of EGCg bitterness” value is reported as “has the ability to reduce EGCg bitterness”.

Broadly, the IC50 is the point on the concentration scale where inhibition reaches its midpoint.
